Among the data in patent US20240254186A1, “GLP-1 Receptor Agonists Having Improved Pharmacological and Drug Delivery Properties” (priority 2021, published 2024) are EC50 values, retold here.

Numbered stars: 1 amine (or outer) side, 2 acyl side, 3 side chain; on linkers, the order of the positions; unused ones are H or OH. Square brackets hold non-standard residues; d marks the D form. Side chains are listed from the residue outwards. Peptide text beside a SMILES is read from it. * marks the point of attachment. Dap(Nα-HOOC(CH2)16CO)OH = O=C(O)CCCCCCCCCCCCCCCCC(=O)N[C@@H](CN*)C(=O)O; X5 = O=C(O)CCCCCCCCCCCCCCCc1cn(-c2ccc(C[C@H](N[*:1])C(=O)[*:2])cc2)nn1; X3 = O=C(O)CCCCCCCCCCCCCCCc1cnnn1-c1ccc(C[C@H](N[*:1])C(=O)[*:2])cc1; X7 = C[C@@](Cc1ccc(-c2ccccc2)cc1)(N[*:1])C(=O)[*:2]; X4 = C[C@](Cc1ccc(-c2ccccc2)cc1)(N[*:1])C(=O)[*:2]; Bip = N[C@@H](Cc1ccc(-c2ccccc2)cc1)C(=O)O; C18 diacid = O=C(O)CCCCCCCCCCCCCCCCC(=O)*; X2 = O=C(CCc1ccc(I)cc1)N[C@@H](CN*)C(=O)O; αMePhe(2-F) = C[C@](N)(Cc1ccccc1F)C(=O)O; γGlu = O=C(O)[C@H](CCC(=O)[*:2])N[*:1]; PEG4 = NCCOCCOCCOCCOCCC(=O)O; αMeP = C[C@@]1(C(=O)O)CCCN1; AEEA = NCCOCCOCC(=O)O; Aib = CC(C)(N)C(=O)O; CO = O=C([*:1])[*:2]

The target in one experiment is T1, hGLP1 receptor (Homo sapiens, UniProt P43220).
T1 construct: expressed in transfected cells; host or cells: HEK (human embryonic kidney) cells co-expressing hGLP1 receptor and a CRE-Luciferase construct
T1 sequence (P43220 24-463): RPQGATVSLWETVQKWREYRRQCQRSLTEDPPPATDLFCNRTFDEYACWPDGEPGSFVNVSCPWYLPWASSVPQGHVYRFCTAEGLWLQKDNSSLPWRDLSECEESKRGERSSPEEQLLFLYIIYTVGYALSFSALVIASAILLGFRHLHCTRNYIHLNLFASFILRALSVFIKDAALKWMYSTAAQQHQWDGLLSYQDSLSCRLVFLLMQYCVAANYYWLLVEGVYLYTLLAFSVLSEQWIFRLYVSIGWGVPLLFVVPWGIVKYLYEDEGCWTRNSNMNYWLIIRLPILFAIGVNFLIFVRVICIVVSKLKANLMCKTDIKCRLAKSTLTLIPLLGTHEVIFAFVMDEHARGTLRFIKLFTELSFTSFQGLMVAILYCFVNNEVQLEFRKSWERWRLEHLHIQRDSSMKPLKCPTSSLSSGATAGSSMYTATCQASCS
Nature of the experiment: cAMP HTRF agonist assay in HEK cells co-expressing the hGLP1 receptor and CRE-Luciferase construct. The conditions noted are these: Table 6; cell annotated (0% albumin); read-out: cAMP EC50. The experiment is classed as cell-based. The method, then:
Human embryonic kidney cells (HEK) co-expressing the hGLP1 receptor and CRE-Luciferase construct were used to determine agonist potency in this assay. The cells were thawed briefly at 37° C., transferred to a sterile tube and re-suspended in complete media at 37° C. Cells were centrifuged at 1000 rpm for 5 minutes and cells collected; cells were re-suspended in assay buffer consisting of DPBS (GIBCO) with 500 μM of the phosphodiesterase inhibitor IBMX. […] The optimal cell density was determined to be 1000 cells/well; cells were added to wells in 384-well plates containing appropriate pre-prepared dilutions of compounds (test peptides or reference compound exendin-4), sealed and incubated with CO2 for 30 min. Test peptide solutions were diluted from 10 mM stock solutions; for most peptides an initial run was performed in duplicate from a maximal concentration of 1.0 μM, with 11 concentrations tested for each peptide using serial 1:3 dilution from this maximal concentration. […] The agonist assay was a homogeneous time-resolved fluorescence (HTRF) assay (Cisbio).
Following incubation of the cells for 30 minutes with test or reference peptides, 5 μL of the cAMP acceptor cAMP-d2, prepared previously as a working solution from frozen stock (1:20 dilution), was added to each well of the assay plate, along with 5 μL of anti-cAMP antibody-cryptate working solution (diluted 1:20 from frozen stock). The wells were incubated for 1 hour at room temperature, and fluorescence was then read at 665 and 615 nm with an Envision reader with TRF laser. Data were saved and analyzed using Prism software (GraphPad). Concentration-response analysis was performed using 4-parameter logistic fits of the resulting data, and EC50 values obtained for each test and reference compound.
`C[C@@H](O)[C@H](NC(=O)CNC(=O)[C@H](CCC(=O)O)NC(=O)[C@]1(C)CCCN1C(=O)[C@@H](N)Cc1c[nH]cn1)C(=O)N[C@@](C)(Cc1ccccc1F)C(=O)N[C@H](C(=O)N[C@@H](CO)C(=O)N[C@@H](CC(=O)O)C(=O)N[C@@H](Cc1ccc(-c2ccccc2)cc1)C(=O)N[C@@H](Cc1ccc(-n2cc(CCCCCCCCCCCCCCCC(=O)O)nn2)cc1)C(N)=O)[C@@H](C)O` [4-70-i1, H2N-His-α-MePro-Glu-Gly-Thr-α-MePhe(2-F)-Thr-Ser-Asp-Bip-FN3(C18 acid)-C(O)NH2] (H-H[αMeP]EGT[αMePhe(2-F)]TSD[Bip][X5]-NH2): the EC50 (usually the concentration giving half of the maximal effect) amounted to 0.04 nM. The same measure, in the same setting: the result for `C[C@@H](O)[C@H](NC(=O)CNC(=O)[C@H](CCC(=O)O)NC(=O)[C@]1(C)CCCN1C(=O)[C@@H](N)Cc1c[nH]cn1)C(=O)N[C@@](C)(Cc1ccccc1F)C(=O)N[C@H](C(=O)N[C@@H](CO)C(=O)N[C@@H](CC(=O)O)C(=O)N[C@@H](Cc1ccc(-c2ccccc2)cc1)C(=O)N[C@@H](Cc1ccc(-n2nncc2CCCCCCCCCCCCCCCC(=O)O)cc1)C(N)=O)[C@@H](C)O` [4-70-i2, H2N-His-α-MePro-Glu-Gly-Thr-α-MePhe(2-F)-Thr-Ser-Asp-Bip-FN3(C18 acid)-C(O)NH2] (H-H[αMeP]EGT[αMePhe(2-F)]TSD[Bip][X3]-NH2) reads 0.7 nM. Still for that read-out and setting: for `C[C@@H](O)[C@H](NC(=O)CNC(=O)[C@H](CCC(=O)O)NC(=O)[C@]1(C)CCCN1C(=O)[C@@H](N)Cc1c[nH]cn1)C(=O)N[C@@](C)(Cc1ccccc1F)C(=O)N[C@H](C(=O)N[C@@H](CO)C(=O)N[C@@H](CC(=O)O)C(=O)N[C@@H](Cc1ccc(-n2cc(CCCCCCCCCCCCCCCC(=O)O)nn2)cc1)C(=O)N[C@@H](Cc1ccc(-c2ccccc2)cc1)C(N)=O)[C@@H](C)O` [4-71-i1, H2N-His-α-MePro-Glu-Gly-Thr-α-MePhe(2-F)-Thr-Ser-Asp-FN3(C18 acid)-Bip-C(O)NH2] (H-H[αMeP]EGT[αMePhe(2-F)]TSD[X5][Bip]-NH2) the value was 0.009 nM; for `C[C@@H](O)[C@H](NC(=O)CNC(=O)[C@H](CCC(=O)O)NC(=O)[C@]1(C)CCCN1C(=O)[C@@H](N)Cc1c[nH]cn1)C(=O)N[C@@](C)(Cc1ccccc1F)C(=O)N[C@H](C(=O)N[C@@H](CO)C(=O)N[C@@H](CC(=O)O)C(=O)N[C@@H](Cc1ccc(-n2nncc2CCCCCCCCCCCCCCCC(=O)O)cc1)C(=O)N[C@@H](Cc1ccc(-c2ccccc2)cc1)C(N)=O)[C@@H](C)O` [4-71-i2, H2N-His-α-MePro-Glu-Gly-Thr-α-MePhe(2-F)-Thr-Ser-Asp-FN3(C18 acid)-Bip-C(O)NH2] (H-H[αMeP]EGT[αMePhe(2-F)]TSD[X3][Bip]-NH2), 0.1 nM.

With `C[C@@H](O)[C@H](NC(=O)CNC(=O)[C@H](CCC(=O)O)NC(=O)[C@]1(C)CCCN1C(=O)[C@@H](N)Cc1c[nH]cn1)C(=O)N[C@@](C)(Cc1ccccc1F)C(=O)N[C@H](C(=O)N[C@@H](CO)C(=O)N[C@@H](CC(=O)O)C(=O)N[C@@H](Cc1ccc(-c2ccccc2)cc1)C(=O)N[C@@](C)(Cc1ccc(-c2ccccc2)cc1)C(N)=O)[C@@H](C)O` [4-73-i1, H2N-His-α-MePro-Glu-Gly-Thr-α-MePhe(2F)-Thr-Ser-Asp-Bip-α-MeBip-C(O)NH2] (H-H[αMeP]EGT[αMePhe(2-F)]TSD[Bip][X7]-NH2), the EC50 was found to be 0.05 nM. Same read-out and setting: for `C[C@@H](O)[C@H](NC(=O)CNC(=O)[C@H](CCC(=O)O)NC(=O)[C@]1(C)CCCN1C(=O)[C@@H](N)Cc1c[nH]cn1)C(=O)N[C@@](C)(Cc1ccccc1F)C(=O)N[C@H](C(=O)N[C@@H](CO)C(=O)N[C@@H](CC(=O)O)C(=O)N[C@@H](Cc1ccc(-c2ccccc2)cc1)C(=O)N[C@](C)(Cc1ccc(-c2ccccc2)cc1)C(N)=O)[C@@H](C)O` [4-73-i2, H2N-His-α-MePro-Glu-Gly-Thr-α-MePhe(2F)-Thr-Ser-Asp-Bip-α-MeBip-C(O)NH2] (H-H[αMeP]EGT[αMePhe(2-F)]TSD[Bip][X4]-NH2) the value was 0.2 nM.

Staying with this experiment, now noted: read-out: cAMP EC50, nM (0.1% albumin); Table 6, C-terminal PK-modifier conjugates; 0.1% albumin.
Consider `C[C@@H](O)[C@H](NC(=O)CNC(=O)[C@H](CCC(=O)O)NC(=O)[C@]1(C)CCCN1C(=O)[C@@H](N)Cc1c[nH]cn1)C(=O)N[C@@](C)(Cc1ccccc1F)C(=O)N[C@H](C(=O)N[C@@H](CO)C(=O)N[C@@H](CC(=O)O)C(=O)N[C@@H](Cc1ccc(-c2ccccc2)cc1)C(=O)N[C@@H](Cc1ccc(-c2ccccc2)cc1)C(=O)NC(C)(C)C(=O)N[C@@H](CCCCNC(=O)CCOCCOCCOCCOCCNC(=O)CC[C@H](NC(=O)CCCCCCCCCCCCCCCCC(=O)O)C(=O)O)C(N)=O)[C@@H](C)O` [4-65, H2N-His-α-MePro-Glu-Gly-Thr-α-MePhe(2-F)-Thr-Ser-Asp-Bip-Bip-C(O)NH-RY21] (H-H[αMeP]EGT[αMePhe(2-F)]TSD[Bip][Bip][Aib]K([PEG4-γGlu-C18 diacid])-NH2), for which the EC50 was found to be 3.8 nM. As to `C[C@@H](O)[C@H](NC(=O)CNC(=O)[C@H](CCC(=O)O)NC(=O)C(C)(C)NC(=O)[C@@H](N)Cc1c[nH]cn1)C(=O)N[C@@](C)(Cc1ccccc1F)C(=O)N[C@H](C(=O)N[C@@H](CO)C(=O)N[C@@H](CC(=O)O)C(=O)N[C@@H](Cc1ccc(-c2ccccc2)cc1)C(=O)N[C@H](Cc1ccc(OC(=O)NCCOCCOCC(=O)NCCOCCOCC(N)=O)cc1)C(N)=O)[C@@H](C)O` [(D)-4-42, H2N-His-Aib-Glu-Gly-Thr-α-MePhe(2-F)-Thr-Ser-Asp-Bip-D-Tyr(O-R4)-C(O)NH2] (H-H[Aib]EGT[αMePhe(2-F)]TSD[Bip][dY]([CO-AEEA-AEEA-NH2])-NH2), the 50% effective concentration (EC50) was 791 nM.

In the case of `C[C@@H](O)[C@H](NC(=O)CNC(=O)[C@H](CCC(=O)O)NC(=O)C(C)(C)NC(=O)[C@@H](N)Cc1c[nH]cn1)C(=O)N[C@@](C)(Cc1ccccc1F)C(=O)N[C@H](C(=O)N[C@@H](CO)C(=O)N[C@@H](CC(=O)O)C(=O)N[C@@H](Cc1ccc(-c2ccccc2)cc1)C(=O)N[C@H](Cc1ccc(OC(=O)NCCOCCOCC(=O)NCCOCCOCC(=O)NC[C@H](NC(=O)CCCCCCCCCCCCCCCCC(=O)O)C(=O)O)cc1)C(N)=O)[C@@H](C)O` [(D)-4-43, H2N-His-Aib-Glu-Gly-Thr-α-MePhe(2-F)-Thr-Ser-Asp-Bip-D-Tyr(O-R5)-C(O)NH2] (H-H[Aib]EGT[αMePhe(2-F)]TSD[Bip][dY]([CO-AEEA-AEEA-Dap(Nα-HOOC(CH2)16CO)OH])-NH2), the EC50 is 693 nM.

For `C[C@@H](O)[C@H](NC(=O)CNC(=O)[C@H](CCC(=O)O)NC(=O)C(C)(C)NC(=O)[C@@H](N)Cc1c[nH]cn1)C(=O)N[C@@](C)(Cc1ccccc1F)C(=O)N[C@H](C(=O)N[C@@H](CO)C(=O)N[C@@H](CC(=O)O)C(=O)N[C@@H](Cc1ccc(-c2ccccc2)cc1)C(=O)N[C@H](Cc1ccc(OC(=O)NCCOCCOCC(=O)NCCOCCOCC(=O)NCCOCCOCC(=O)NC[C@H](NC(=O)CCc2ccc(I)cc2)C(=O)O)cc1)C(N)=O)[C@@H](C)O` [(D)-4-44, H2N-His-Aib-Glu-Gly-Thr-α-MePhe(2-F)-Thr-Ser-Asp-Bip-D-Tyr(O-R6)-C(O)NH2] (H-H[Aib]EGT[αMePhe(2-F)]TSD[Bip][dY]([CO-AEEA-AEEA-AEEA-X2])-NH2), the EC50 worked out at 299 nM.
